Tests used:
DOR = DOR (Homo sapiens, UniProt P41143); test: NanoBiT-based β-arrestin-2 recruitment assay, DOR; format: cell-based; design: expressed in transfected cells; host or cells: U87; conditions: concentration range 0.15 nM to 80 μM; reference Met-enkephalin
Method: The ability of the different molecules to activate the four opioid receptors MOR, DOR, KOR and NOP that are known to mediate in vivo analgesic effects was tested using the NanoBiT-based β-arrestin-2 recruitment assay in a concentration range of 0.15 nM to 80 μM. For each of these receptors a reference ligand corresponding to an endogenous opioid peptide i.e. Met-enkephalin, BAM22, Dynorphin A and Nociceptin, respectively was included.
(§1) Ligand-induced β-arrestin recruitment to chemokine and opioid receptors was monitored by NanoLuc complementation assay (NanoBiT, Promega). In brief, 1.2×10^6 U87 cells were plated in 10-cm culture dishes and 48 hours later co-transfected with pNBe vectors encoding GPCRs (ACKR3, MOR, DOR, KOR, or NOP) C-terminally tagged with SmBiT and human β-arrestin-1 (arrestin-2) or β-arrestin-2 (arrestin-3) N-terminally fused to LgBiT. 48 hours post-transfection cells were harvested, incubated 25 minutes at 37° C. with Nano-Glo Live Cell substrate diluted 200-fold and distributed into white 96-well plates (5×10^4 cells per well). Ligand-induced, β-arrestin to GPCRs was evaluated with a Mithras LB940 luminometer (Berthold Technologies, running on MicroWin 2010 5.19 software (Mikrotek Laborsysteme)) for 20 minutes.
For concentration-response curves (FIG. 2), the signal recorded with a saturating concentration of full agonist for each receptor was set as 100%. […]

ACKR4 = molecular target: T1, ACKR4 (Homo sapiens, UniProt Q9NPB9); test: NanoBiT β-arrestin-1 recruitment, receptor selectivity panel, ACKR4; format: cell-based; conditions: higher concentrations (3 μM, 10 μM); FIG. 3 sections B and C
T1 construct: expressed in transfected cells; host or cells: U87
T1 sequence (Q9NPB9 1-350): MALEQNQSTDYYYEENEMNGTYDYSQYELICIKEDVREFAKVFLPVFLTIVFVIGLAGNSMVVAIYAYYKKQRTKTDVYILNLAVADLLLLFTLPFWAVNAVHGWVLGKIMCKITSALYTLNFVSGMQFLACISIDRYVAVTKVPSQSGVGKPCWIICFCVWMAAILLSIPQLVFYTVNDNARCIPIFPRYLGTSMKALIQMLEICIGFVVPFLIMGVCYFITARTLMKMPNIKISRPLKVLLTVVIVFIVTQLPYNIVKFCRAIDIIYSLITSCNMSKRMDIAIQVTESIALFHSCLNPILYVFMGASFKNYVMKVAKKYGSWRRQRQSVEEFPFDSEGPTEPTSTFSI
Method: (§2) To further assess the selectivity profile of the compounds of the invention towards ACKR3, the ability to activate the 21 classical and 4 atypical chemokines receptors and related receptors was tested using the NanoBiT assay based β-arrestin-1 recruitment described previously. The 4 classical opioid receptors described above were also included in the experimental setup. The compounds WW-1 (conolidine) and WW-12 were tested at three different concentrations, 1 μM, 3 μM and 10 μM.
This possible off-target effect was further characterized by comparing the ability of the two molecules to activate receptors ACKR4, CX3CR1 and CCR3 with reference ligands for the receptors, namely CCL19, CX3CL1 and CCL13.
Ligand-induced β-arrestin recruitment to chemokine and opioid receptors was monitored by NanoLuc complementation assay (NanoBiT, Promega). […] Ligand-induced, β-arrestin to GPCRs was evaluated with a Mithras LB940 luminometer (Berthold Technologies, running on MicroWin 2010 5.19 software (Mikrotek Laborsysteme)) for 20 minutes.
(§3) For single dose screening experiments on all chemokine receptors(FIG. 3), the results are represented as percentage of signal monitored with 100 nM of one known agonist chemokine listed in the IUPHAR repository of chemokine receptor ligands which was added as positive control.

ACKR3 [1] = molecular target: T2, ACKR3 (Homo sapiens, UniProt P25106); test: Binding competition assay with CXCL12-AF647 on U87-ACKR3 cells; design: expressed in transfected cells; host or cells: U87-ACKR3 (ACKR3-negative U87 as control); conditions: 5 nM CXCL12-AF647, FIG. 1 section D
Description: Dead cells were excluded using Zombie Green viability dye (BioLegend). […] Ligand binding was quantified by mean fluorescence intensity on a BD FACS Fortessa cytometer (BD Biosciences) using FACS Diva 8.01 (BD Biosciences).
Target sequence in this assay (P25106 whole entry): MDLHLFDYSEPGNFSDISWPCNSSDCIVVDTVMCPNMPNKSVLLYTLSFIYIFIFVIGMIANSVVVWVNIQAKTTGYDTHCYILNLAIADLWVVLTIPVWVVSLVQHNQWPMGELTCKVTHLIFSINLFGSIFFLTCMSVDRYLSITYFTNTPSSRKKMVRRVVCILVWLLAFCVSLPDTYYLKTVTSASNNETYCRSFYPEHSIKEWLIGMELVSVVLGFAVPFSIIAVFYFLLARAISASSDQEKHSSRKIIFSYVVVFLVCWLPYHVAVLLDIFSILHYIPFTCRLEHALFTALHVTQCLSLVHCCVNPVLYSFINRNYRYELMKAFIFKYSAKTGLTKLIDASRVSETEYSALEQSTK

mouse ACKR3 = molecular target: T3, mouse ACKR3 (Mus musculus, UniProt P56485); test: NanoBiT-based β-arrestin-2 recruitment assay, mouse ACKR3 in U87 cells; format: cell-based; conditions: for agonist efficacy at mACKR3 compared to CXCL-12: NanoBiT β-arrestin-2 recruitment, reference ligand CXCL-12; for EC50: NanoBiT, U87 cells, FIG. 1 section C, read-out: EC50, β-arrestin-2 recruitment to mouse receptor (mACKR3)
T3 construct: expressed in transfected cells; host or cells: U87
Method: (§4) Concentration-response studies were performed with molecules WW-1 (conolidine) and WW-12 on the human and mouse ACKR3 receptors in U87 cells using a NanoBiT-based β-arrestin-2 recruitment assay […] to evaluate their efficacy and potency towards the two receptors.
as §1
(§5) For concentration-response curves (FIG. 2), the signal recorded with a saturating concentration of full agonist for each receptor was set as 100%. To evaluate the antagonist properties of ligands, full agonists of each receptor (50 nM BAM22 for MOR, 50 nM dynorphin A for KOR, 70 nM met-enkephalin for DOR, 70 nM nociceptin for NOP and 4 nM CXCL12 for ACKR3) were added after the 20-minute incubation with the ligands.

ACKR3 [2] = molecular target: T2, ACKR3; test: NanoBiT-based β-arrestin-2 recruitment assay, human ACKR3 in U87 cells; format: cell-based; design: expressed in transfected cells; host or cells: U87; conditions: for agonist efficacy at hACKR3 compared to CXCL-12: NanoBiT β-arrestin recruitment, reference ligand CXCL-12; for EC50: NanoBiT, U87 cells, FIG. 1 section A, read-out: EC50, β-arrestin-2 recruitment to hACKR3
Method: as §4, §1, §5
Target sequence in this assay (P25106 whole entry): as above
Target sequence in this assay (P32121 whole entry partner): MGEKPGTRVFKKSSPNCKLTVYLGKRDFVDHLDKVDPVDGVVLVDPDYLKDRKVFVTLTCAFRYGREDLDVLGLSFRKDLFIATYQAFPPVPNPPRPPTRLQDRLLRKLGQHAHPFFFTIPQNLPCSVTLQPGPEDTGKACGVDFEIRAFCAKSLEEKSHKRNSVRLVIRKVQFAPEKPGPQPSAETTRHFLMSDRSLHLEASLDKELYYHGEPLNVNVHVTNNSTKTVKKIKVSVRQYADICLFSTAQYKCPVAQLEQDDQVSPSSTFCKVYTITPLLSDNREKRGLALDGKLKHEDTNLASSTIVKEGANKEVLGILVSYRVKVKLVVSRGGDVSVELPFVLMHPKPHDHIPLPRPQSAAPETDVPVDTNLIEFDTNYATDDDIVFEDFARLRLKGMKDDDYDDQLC

ACKR3 [3] = molecular target: T2, ACKR3; test: NanoBiT β-arrestin-1 recruitment, receptor selectivity panel, ACKR3; format: cell-based; design: expressed in transfected cells; host or cells: U87; conditions: for modulation of ACKR3 in comparison with opioid receptor reference molecules (β-arrestin1 recruitment): NanoBiT, ACKR3 versus MOR, DOR, KOR, NOP, FIG. 5; for activation of ACKR3 (β-arrestin-1 recruitment) in receptor panel: concentration of 1 μM, FIG. 3 section A
Method: as §2
Target sequence in this assay (P25106 whole entry): as the sequence (P25106 whole entry) above
Target sequence in this assay (P49407 whole entry partner): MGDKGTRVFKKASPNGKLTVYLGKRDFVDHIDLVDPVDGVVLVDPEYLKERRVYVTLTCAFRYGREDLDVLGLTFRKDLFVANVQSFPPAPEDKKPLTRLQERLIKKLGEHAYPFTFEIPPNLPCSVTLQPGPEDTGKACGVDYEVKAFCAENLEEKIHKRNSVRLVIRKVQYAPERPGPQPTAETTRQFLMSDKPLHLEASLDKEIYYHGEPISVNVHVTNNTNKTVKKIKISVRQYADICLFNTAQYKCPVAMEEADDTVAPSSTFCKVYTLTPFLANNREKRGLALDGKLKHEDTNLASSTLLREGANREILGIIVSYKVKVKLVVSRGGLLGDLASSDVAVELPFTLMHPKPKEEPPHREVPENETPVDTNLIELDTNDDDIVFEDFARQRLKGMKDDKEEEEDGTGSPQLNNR
The ability of the compounds of the invention to activate ACKR3 and classical opioid receptors with reference synthetic molecules and approved pain medications such as morphine, fentanyl or buprenorphine that are known to modulate the classical opioid receptors MOR, DOR, KOR and NOP was also tested in NanoBiT based β-arerstin1 recruitment assay. […] The results are depicted in FIG. 5.
as §1, §3

T3 sequence (P56485 whole entry): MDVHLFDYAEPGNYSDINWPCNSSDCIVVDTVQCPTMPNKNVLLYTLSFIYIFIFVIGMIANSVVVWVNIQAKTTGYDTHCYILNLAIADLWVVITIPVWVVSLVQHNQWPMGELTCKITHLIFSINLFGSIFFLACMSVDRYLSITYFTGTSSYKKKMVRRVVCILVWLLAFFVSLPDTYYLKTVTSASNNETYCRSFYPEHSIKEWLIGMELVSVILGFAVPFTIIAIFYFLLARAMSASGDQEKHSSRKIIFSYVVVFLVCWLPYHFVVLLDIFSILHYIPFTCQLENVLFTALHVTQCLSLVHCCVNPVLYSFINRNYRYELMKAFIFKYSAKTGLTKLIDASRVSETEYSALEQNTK
T3 sequence (P32121 whole entry partner): as the sequence (P32121 whole entry partner) above
Sequence of DOR (P41143 whole entry): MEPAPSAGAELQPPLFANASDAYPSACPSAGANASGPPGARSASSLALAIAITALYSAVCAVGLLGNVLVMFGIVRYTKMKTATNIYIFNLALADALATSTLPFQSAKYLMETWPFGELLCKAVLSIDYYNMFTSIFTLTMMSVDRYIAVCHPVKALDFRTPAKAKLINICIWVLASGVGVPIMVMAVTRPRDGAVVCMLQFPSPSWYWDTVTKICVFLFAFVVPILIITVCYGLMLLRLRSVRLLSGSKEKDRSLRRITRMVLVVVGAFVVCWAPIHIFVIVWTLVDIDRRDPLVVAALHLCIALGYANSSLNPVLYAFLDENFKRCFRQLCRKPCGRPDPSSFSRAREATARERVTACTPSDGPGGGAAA

Row | SMILES | activation of DOR (β-arrestin-2 recruitment) (DOR) | activation of ACKR4 (β-arrestin-1 recruitment) in receptor panel (ACKR4) | IC50 (ACKR3 [1]) [µM] | agonist efficacy at mACKR3 compared to CXCL-12 (mouse ACKR3) | EC50 (mouse ACKR3) [µM] | agonist efficacy at hACKR3 compared to CXCL-12 (ACKR3 [2]) | agonist efficacy at hACKR3 compared to CXCL-12 (ACKR3 [2]; listed as conolidine) | EC50 (ACKR3 [2]) [µM] | modulation of ACKR3 in comparison with opioid receptor reference molecules (β-arrestin1 recruitment) (ACKR3 [3]) | activation of ACKR3 (β-arrestin-1 recruitment) in receptor panel (ACKR3 [3])
1 | C/C=C1/CN2CC[C@H]1C(=O)c1[nH]c3ccccc3c1C2 [WW-1, (4E,5R)-4-ethylidene-1,4,5,7-tetrahydro-2,5-ethanoazocino[4,3-b]indol-6(3H)-one] | not active | weak activation | 39.9 | full agonists | 22 | full agonists | full agonist | 16.6 | specific ACKR3 activators | activated ACKR3
2 | C/C=C1/CN(CCCCC)CC[C@H]1C(=O)c1cc2ccccc2[nH]1 [WW-12, [(3E,4R)-3-ethylidene-1-pentylpiperidin-4-yl](1H-indol-2-yl)methanone] | not active | weak activation | 2.7 | full agonists | 0.9 | full agonists |  | 0.7 | specific ACKR3 activators | activated ACKR3
